Source: US8431563B2 (priority 2010, dated 2013)
Where a name gives a salt, the structure may show the parent alone.

Experiments:
GK-GKRP = target: T1, GK-GKRP (Homo sapiens, UniProt Q14397); experiment: biochemical; conditions: GK-GKRP IC50 (Binding)
T1 sequence (Q14397 1-625): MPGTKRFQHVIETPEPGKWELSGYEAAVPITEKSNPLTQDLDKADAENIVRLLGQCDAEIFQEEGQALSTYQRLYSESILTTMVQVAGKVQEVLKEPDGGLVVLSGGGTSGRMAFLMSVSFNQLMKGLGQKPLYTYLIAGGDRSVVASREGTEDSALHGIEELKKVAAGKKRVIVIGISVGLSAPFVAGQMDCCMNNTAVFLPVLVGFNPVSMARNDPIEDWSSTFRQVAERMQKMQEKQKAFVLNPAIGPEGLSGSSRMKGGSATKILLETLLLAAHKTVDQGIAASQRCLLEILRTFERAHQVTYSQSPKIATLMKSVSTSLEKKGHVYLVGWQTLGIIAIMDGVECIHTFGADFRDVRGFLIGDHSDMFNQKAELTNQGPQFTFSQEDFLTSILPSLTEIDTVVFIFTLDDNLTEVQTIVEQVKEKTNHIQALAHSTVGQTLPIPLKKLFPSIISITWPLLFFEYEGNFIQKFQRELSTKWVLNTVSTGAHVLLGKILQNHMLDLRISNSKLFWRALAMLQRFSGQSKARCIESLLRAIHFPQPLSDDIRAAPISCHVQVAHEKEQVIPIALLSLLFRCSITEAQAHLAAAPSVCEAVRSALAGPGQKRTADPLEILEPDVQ

[1] = target: T2, GKRP (Glucokinase Regulatory Protein) with human His-hepatic GK (Homo sapiens, UniProt Q14397); experiment: GKRP NADPH Coupled Assay; type: biochemical; conditions: indirect measure of glucose-6-phosphate, fluorescence, 1 μM GKRP (10×), 20 nM GK (5×)
T2 sequence (Q14397 1-625): T1 sequence (Q14397 1-625)
How it was run: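 Human His-hepatic GK (5× stock 20 nM) in 50 mM Tris pH 7.5, 4 mM MgCl2, 6% DMSO, 0.1% BSA, 0.01% Brij-35, with GKRP and compound preincubated 30 min, then reaction 1 h at RT. Glucose-6-phosphate read indirectly via G6P dehydrogenase-coupled NADPH formation from β-NADP (2× stop/detection reagent, pH 9.2, 5 min).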

[2] = target: T2, GKRP (Glucokinase Regulatory Protein) with human His-hepatic GK; experiment: GKRP LC MS/MS Biochemical Assay; conditions: 13C-glucose-6-phosphate formation, 1 μM GKRP (10×), 30 nM GK (5×)
How it was run: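 Human His-hepatic GK (working stock 30 nM, 5×) with GKRP in 50 mM Tris pH 7.5, 4 mM MgCl2, 6% DMSO, DTT, BSA and Brij-35. After a 30 min preincubation, GK was added and the reaction ran 30 min at room temperature. Stopped with acetonitrile; 13C-glucose-6-phosphate formed from 13C-glucose quantified by LC MS/MS.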

## CC#CC1CN(S(=O)(=O)c2ccc(N)nc2)CCN1c1ncc(C(C)(O)C(F)(F)F)cn1 (mixture of isomers) [Example 251, 2-(2-(4-((6-amino-3-pyridinyl)sulfonyl)-2-(1-propyn-1-yl)-1-piperazinyl)-5-pyrimidinyl)-1,1,1-trifluoro-2-propanol]
GK-GKRP
  IC50: 0.036 µM

## Cc1ccc(S(=O)(=O)N2CCN(c3ccc(C(O)(C(F)(F)F)C(F)(F)F)cc3)CC2)s1 [Example 8, 1,1,1,3,3,3-hexafluoro-2-(4-(4-((5-methyl-2-thiophenyl)sulfonyl)-1-piperazinyl)phenyl)-2-propanol]
[1]; GK-GKRP EC50 (NADPH-coupled)
  EC50: 4.58 µM
[2]; GK-GKRP EC50 (LC MS/MS)
  EC50: 11.4 µM

## O=S(=O)(c1cccc(Cl)c1)N1CCN(c2ccc(C(O)(C(F)(F)F)C(F)(F)F)cc2)CC1 [Example 9, 2-(4-(4-(3-chlorophenylsulfonyl)piperazin-1-yl)phenyl)-1,1,1,3,3,3-hexafluoro-2-propanol]
[1]; GK-GKRP EC50 (NADPH-coupled)
  EC50: 4.41 µM
[2]; GK-GKRP EC50 (LC MS/MS)
  EC50: 3.71 µM

## O=S(=O)(c1ccccc1Cl)N1CCN(c2ccc(C(O)(C(F)(F)F)C(F)(F)F)cc2)CC1 [Example 10, 2-(4-(4-((2-chlorophenyl)sulfonyl)-1-piperazinyl)phenyl)-1,1,1,3,3,3-hexafluoro-2-propanol]
[1]; GK-GKRP EC50 (NADPH-coupled)
  EC50: 3.95 µM
[2]; GK-GKRP EC50 (LC MS/MS)
  EC50: 2.6 µM

## C[C@H]1CN(S(=O)(=O)c2ccccc2)CCN1c1ccc(C(O)(C(F)(F)F)C(F)(F)F)cc1 [Example 12, 1,1,1,3,3,3-hexafluoro-2-(4-((2S)-2-methyl-4-(phenylsulfonyl)-1-piperazinyl)phenyl)-2-propanol]
[1]; GK-GKRP EC50 (NADPH-coupled)
  EC50: 0.821 µM
[2]; GK-GKRP EC50 (LC MS/MS)
  EC50: 0.884 µM

## O=S(=O)(c1ccccc1)c1ccc(-c2ccc(C(O)(C(F)(F)F)C(F)(F)F)cn2)cc1 [Example 17, 1,1,1,3,3,3-hexafluoro-2-(6-(4-(phenylsulfonyl)phenyl)-3-pyridinyl)-2-propanol]
[1]; GK-GKRP EC50 (NADPH-coupled)
  EC50: 1.63 µM
[2]; GK-GKRP EC50 (LC MS/MS)
  EC50: 1.71 µM

## O=S(=O)(c1ccccc1)c1ccc(-c2ccc(C(O)(C(F)(F)F)C(F)(F)F)cc2)cc1 [Example 21, 1,1,1,3,3,3-hexafluoro-2-(4′-(phenylsulfonyl)-4-biphenylyl)-2-propanol]
[1]; GK-GKRP EC50 (NADPH-coupled)
  EC50: 1.66 µM
[2]; GK-GKRP EC50 (LC MS/MS)
  EC50: 3.96 µM

## O=S(=O)(c1ccccc1)N1CCN(c2ccc(C(O)(C(F)(F)F)C(F)(F)F)cn2)CC1 [Example 22, 1,1,1,3,3,3-hexafluoro-2-(6-(4-(phenylsulfonyl)-1-piperazinyl)-3-pyridinyl)-2-propanol]
[1]; GK-GKRP EC50 (NADPH-coupled)
  EC50: 2.73 µM
[2]; GK-GKRP EC50 (LC MS/MS)
  EC50: 2.08 µM

## C[C@H]1CN(S(=O)(=O)c2nccs2)CCN1c1ccc(C(O)(C(F)(F)F)C(F)(F)F)cc1 [Example 31, 1,1,1,3,3,3-hexafluoro-2-(4-((2S)-2-methyl-4-(1,3-thiazol-2-ylsulfonyl)-1-piperazinyl)phenyl)-2-propanol trifluoroacetate]
[1]; GK-GKRP EC50 (NADPH-coupled)
  EC50: 0.561 µM
[2]; GK-GKRP EC50 (LC MS/MS)
  EC50: 0.702 µM

## O=S(=O)(c1nccs1)N1CCN(c2ccc(C(O)(C(F)(F)F)C(F)(F)F)cc2)CC1 [Example 33, 1,1,1,3,3,3-hexafluoro-2-(4-(4-(1,3-thiazol-2-ylsulfonyl)-1-piperazinyl)phenyl)-2-propanol trifluoroacetate]
[1]; GK-GKRP EC50 (NADPH-coupled)
  EC50: 0.664 µM
[2]; GK-GKRP EC50 (LC MS/MS)
  EC50: 0.842 µM

## CC(O)(c1ccc(N2CCN(S(=O)(=O)c3ccccc3)CC2CC2CCOCC2)cc1)C(F)(F)F (stereo not shown) [Example 41, 1,1,1-trifluoro-2-(4-(4-(phenylsulfonyl)-2-(tetrahydro-2H-pyran-4-ylmethyl)-1-piperazinyl)phenyl)-2-propanol]
[1]; read-out: GK-GKRP EC50 (NADPH-coupled)
  EC50: 0.785 µM
[2]; read-out: GK-GKRP EC50 (LC MS/MS)
  EC50: 0.572 µM

## C[C@H]1COCCN1C[C@H]1CN(S(=O)(=O)c2cccs2)CCN1c1ccc([C@@](C)(O)C(F)(F)F)cc1 [Example 45 Peak #2, 1,1,1-trifluoro-2-(4-((2S)-2-(((3S)-3-methyl-4-morpholinyl)methyl)-4-(2-thiophenylsulfonyl)-1-piperazinyl)phenyl)-2-propanol]
[1]; GK-GKRP EC50 (NADPH-coupled)
  EC50: 0.068 µM
[2]; GK-GKRP EC50 (LC MS/MS)
  EC50: 0.071 µM

## CC(O)(c1ccc(N2CCN(S(=O)(=O)c3cccs3)CC2CN2C[C@H]3C[C@@H]2CO3)cc1)C(F)(F)F (stereo partly drawn) [Example 50, 1,1,1-trifluoro-2-(4-(2-((1R,4R)-2-oxa-5-azabicyclo[2.2.1]hept-5-ylmethyl)-4-(2-thiophenylsulfonyl)-1-piperazinyl)phenyl)-2-propanol]
[1]; GK-GKRP EC50 (NADPH-coupled)
  EC50: 0.67 µM
[2]; GK-GKRP EC50 (LC MS/MS)
  EC50: 0.88 µM

## O=S(=O)(c1c[nH]cn1)N1CCN(c2ccc(C(O)(C(F)(F)F)C(F)(F)F)cc2)CC1 [Example 60, 1,1,1,3,3,3-hexafluoro-2-(4-(4-(1H-imidazol-4-ylsulfonyl)-1-piperazinyl)phenyl)-2-propanol]
[1]; GK-GKRP EC50 (NADPH-coupled)
  EC50: 2.34 µM
[2]; GK-GKRP EC50 (LC MS/MS)
  EC50: 2.32 µM

## CC[C@H]1CN(S(=O)(=O)c2cccs2)CCN1c1ccc(C(O)(C(F)(F)F)C(F)(F)F)cc1 [Example 63, 2-(4-((2S)-2-ethyl-4-(2-thiophenylsulfonyl)-1-piperazinyl)phenyl)-1,1,1,3,3,3-hexafluoro-2-propanol]
[1]; GK-GKRP EC50 (NADPH-coupled)
  EC50: 0.679 µM
[2]; GK-GKRP EC50 (LC MS/MS)
  EC50: 1.37 µM

## O=S(=O)(c1cccs1)N1CCN(c2ccc(C(O)(C(F)(F)F)C(F)(F)F)cc2)[C@@H](Cc2ccccc2)C1 [Example 64, 2-(4-((2S)-2-benzyl-4-(2-thiophenylsulfonyl)-1-piperazinyl)phenyl)-1,1,1,3,3,3-hexafluoro-2-propanol]
[1]; GK-GKRP EC50 (NADPH-coupled)
  EC50: 0.308 µM
[2]; GK-GKRP EC50 (LC MS/MS)
  EC50: 0.772 µM

## O=S(=O)(c1cccs1)N1CCN(c2ccc(C(O)(C(F)(F)F)C(F)(F)F)cc2-c2ccccc2)CC1 [Example 69, 1,1,1,3,3,3-hexafluoro-2-(6-(4-(2-thiophenylsulfonyl)-1-piperazinyl)-3-biphenylyl)-2-propanol trifluoroacetate]
[1]; GK-GKRP EC50 (NADPH-coupled)
  EC50: 2.12 µM
[2]; GK-GKRP EC50 (LC MS/MS)
  EC50: 1.75 µM

## COc1cccc(-c2cc(C(O)(C(F)(F)F)C(F)(F)F)ccc2N2CCN(S(=O)(=O)c3cccs3)CC2)c1 [Example 70, 1,1,1,3,3,3-hexafluoro-2-(3′-methoxy-6-(4-(2-thiophenylsulfonyl)-1-piperazinyl)-3-biphenylyl)-2-propanol trifluoroacetate]
[1]; GK-GKRP EC50 (NADPH-coupled)
  EC50: 3.34 µM
[2]; GK-GKRP EC50 (LC MS/MS)
  EC50: 1.82 µM

## O=S(=O)(c1cccs1)N1CCN(c2ccc(C(O)(C(F)(F)F)C(F)(F)F)cc2-c2cccc(F)c2)CC1 [Example 71, 1,1,1,3,3,3-hexafluoro-2-(3′-fluoro-6-(4-(2-thiophenylsulfonyl)-1-piperazinyl)-3-biphenylyl)-2-propanol]
[1]; GK-GKRP EC50 (NADPH-coupled)
  EC50: 3.67 µM
[2]; GK-GKRP EC50 (LC MS/MS)
  EC50: 1.84 µM

## O=S(=O)(c1cccs1)N1CCN(c2ccc(C(O)(C(F)(F)F)C(F)(F)F)cc2-c2cccnc2)CC1 [Example 72, 1,1,1,3,3,3-hexafluoro-2-(3-(3-pyridinyl)-4-(4-(2-thiophenylsulfonyl)-1-piperazinyl)phenyl)-2-propanol]
[1]; GK-GKRP EC50 (NADPH-coupled)
  EC50: 0.775 µM
[2]; GK-GKRP EC50 (LC MS/MS)
  EC50: 0.783 µM

## O=S(=O)(c1cccs1)N1CCN(c2ccc(C(O)(C(F)(F)F)C(F)(F)F)cc2-c2ccsc2)CC1 [Example 73, 1,1,1,3,3,3-hexafluoro-2-(3-(3-thiophenyl)-4-(4-(2-thiophenylsulfonyl)-1-piperazinyl)phenyl)-2-propanol]
[1]; GK-GKRP EC50 (NADPH-coupled)
  EC50: 3.5 µM
[2]; GK-GKRP EC50 (LC MS/MS)
  EC50: 1.9 µM

## O=S(=O)(c1cccs1)N1CCN(c2ccc(C(O)(C(F)(F)F)C(F)(F)F)cc2-c2ccc(O)cc2)CC1 [Example 74, 2′-(4-(2-thiophenylsulfonyl)-1-piperazinyl)-5′-(2,2,2-trifluoro-1-hydroxy-1-(trifluoromethyl)ethyl)-4-biphenylol]
[1]; GK-GKRP EC50 (NADPH-coupled)
  EC50: 1.47 µM
[2]; GK-GKRP EC50 (LC MS/MS)
  EC50: 1.37 µM
